In patent publication US5968910A, “Compositions containing two or three inhibitors of different HIV reverse transcriptases” (priority 1994, dated 1999):
≈ marks a conversion by molar mass, not a printed value. Read-outs that look alike come from different tables or passages of the source.

Experiments:
HIV-1(IIIB) (WT) = assay: microbe, parasite or virus in culture; format: cell-based; conditions: Human immunodeficiency virus 1, IIIB, CCRF-CEM; CEM cells, Table 1; read-out: 50% Effective Concentration
In short: (§1)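 Syncytium formation read out after 4 days at 37° C. Cultures: CEM cells, 250,000/ml, infected at 100 50% cell culture infective doses/ml and added to compound dilutions.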

HIV-1 RT (WT) = HIV-1 RT (WT) (Human immunodeficiency virus type 1 group M subtype B, UniProt P03366); assay: biochemical; conditions: substrate [2,8-3H]dGTP 2.95 μM, template poly(rC)oligo(dG); read-out: IC50, anti-HIV-1 RT (WT) activity (converted)
Protocol: The reaction mixture (50 μl) contained 50 mM Tris.HCl, pH 7.8, 5 mM dithiothreitol, […] glutathione, 500 μM EDTA, 150 mM KCl, 5 mM MgCl2, 1.25 μg of bovine serum albumin, a fixed concentration of the labeled substrate [2,8-^3 H]dGTP (2.95 μM, 2 μCi), a fixed concentration of the template/primer poly(C).oligo(dG) (0.1 mM), 0.06% Triton X-100, 5 μl of inhibitor solution [containing various concentrations (5-fold dilutions) of the test compounds], and 5 μl of the RT preparation. The reaction mixtures were incubated at 37° C. for 30 min, at which time 100 μl of calf thymus DNA (150 μg/ml), 2 ml of Na4 P2 07 (0.1 M in 1M HCl), and 2 ml of trichloroacetic acid (10%, v/v) were added. The solutions were kept on ice for 30 min, after which the acid-insoluble material was washed and analyzed for radioactivity.
Compounds I, III, IV and V were evaluated for their inhibitory effect on recombinant HIV-1 RT.

[1] = test system: HIV-1/TIBO R82150 (100-Ile); assay: Sensitivity of mutant HIV-1 strain in CEM cell cultures; format: cell-based; conditions: Human immunodeficiency virus 1, CCRF-CEM; CEM cells, Table 1; read-out: 50% Effective Concentration
In short: as §1

[2] = test system: HIV-1/TIBO R82913 (103-Asn); assay: as above; format: cell-based; conditions: Human immunodeficiency virus 1, CCRF-CEM; CEM cells, Table 1; read-out: 50% Effective Concentration
In short: as §1

HIV-1/Pyr (181-Cys) = assay: as above; format: cell-based; conditions: Human immunodeficiency virus 1, CCRF-CEM; CEM cells, Table 1; read-out: 50% Effective Concentration
In short: as §1

[3] = test system: HIV-1/TSAO-m^3 T (138-Lys); assay: as above; format: cell-based; conditions: Human immunodeficiency virus 1, CCRF-CEM; CEM cells, Table 1; read-out: 50% Effective Concentration
In short: as §1

HIV-1/Nev (106-Ala) = assay: as above; format: cell-based; conditions: Human immunodeficiency virus 1, CCRF-CEM; CEM cells, Table 1; read-out: 50% Effective Concentration
In short: as §1

HIV-1(IIIB) = assay: Knock-out concentrations: breakthrough of HIV-1(IIIB)-induced cytopathicity in CEM cell cultures; format: cell-based; conditions: Human immunodeficiency virus 1, IIIB, CCRF-CEM, read-out: HIV-1-induced cytopathicity in cell culture; for activity at 0.1 µg/mL: 0.1 μg/ml; for activity at 0.5 µg/mL: 0.5 μg/ml; for activity at 2.5 µg/mL: 2.5 μg/ml
Protocol: The culture medium consisted of RPMI 1640 containing 10% fetal bovine serum, 2 mM L-glutamine, and 0.075% NaHCO3. The multiplicity of the initial infection was ~1000 times the CCID50 (50% cell culture infective dose). Passages were performed every 3 to 4 days by adding 0.5 to 1.0 ml of the infected culture supernatant to 5 ml of a suspension containing 4×10^5 uninfected CEM cells per ml. Syncytium formation was used as a parameter of virus breakthrough in the cell cultures. In the drug combination experiments, the compounds were combined at the same initial concentrations as used for the two lowest concentrations in the single-drug experiments.
The drug concentrations were kept constant throughout the whole time period of the experiment (10 subcultivations or 35 days). Then the drugs were removed from the cell cultures, and the cells were further subcultured for at least 5 additional passages.

[4] = 936 h, day 39 post infection, compound absent from day 35
[5] = 1008 h, day 42 post infection, compound absent from day 35
[6] = 1104 h, day 46 post infection, compound absent from day 35
[7] = 1176 h, day 49 post infection, compound absent from day 35
[8] = 1272 h, day 53 post infection, compound absent from day 35

CC(C)Nc1cccnc1N1CCN(C(=O)c2cc3ccccc3[nH]2)CC1 [BHAP U88204, reference compound] was tested. Which EC50 (HIV-1(IIIB) (WT)) did it give?
Its EC50 is 0.04 µg/mL (≈ 0.11 µM).

What about the IC50 (HIV-1 RT (WT)) of the same compound?
The IC50 was 1.21 µM.

What about the EC50 [1] of the same compound?
The EC50 was 0.75 µg/mL (≈ 2.06 µM).

And the EC50 [2]?
Its EC50 is 1.7 µg/mL (≈ 4.68 µM).

And the EC50 (HIV-1/Pyr (181-Cys))?
Its EC50 is 0.4 µg/mL (≈ 1.1 µM).

And the EC50 [3]?
The EC50 was 0.07 µg/mL (≈ 0.193 µM).

And the EC50 (HIV-1/Nev (106-Ala))?
The EC50 was 0.4 µg/mL (≈ 1.1 µM).

And the activity at 0.1 µg/mL (HIV-1(IIIB); 96 h, day 4 post infection)?
The activity at 0.1 µg/mL was 0%.

What about the activity at 0.5 µg/mL (HIV-1(IIIB); 96 h, day 4 post infection) of the same compound?
Its activity at 0.5 µg/mL is 0%.

What about the activity at 2.5 µg/mL (HIV-1(IIIB); 96 h, day 4 post infection) of the same compound?
Its activity at 2.5 µg/mL is 0%.

What about the activity at 0.1 µg/mL (HIV-1(IIIB); 192 h, day 8 post infection) of the same compound?
Its activity at 0.1 µg/mL is 12.5%.

What about the activity at 0.5 µg/mL (HIV-1(IIIB); 192 h, day 8 post infection) of the same compound?
Its activity at 0.5 µg/mL is 0%.

What about the activity at 2.5 µg/mL (HIV-1(IIIB); 192 h, day 8 post infection) of the same compound?
The activity at 2.5 µg/mL was 0%.

And the activity at 0.1 µg/mL (HIV-1(IIIB); 264 h, day 11 post infection)?
Its activity at 0.1 µg/mL is 50%.

What about the activity at 0.5 µg/mL (HIV-1(IIIB); 264 h, day 11 post infection) of the same compound?
The activity at 0.5 µg/mL was 6.25%.

And the activity at 2.5 µg/mL (HIV-1(IIIB); 264 h, day 11 post infection)?
The activity at 2.5 µg/mL was 0%.

What about the activity at 0.1 µg/mL (HIV-1(IIIB); 336 h, day 14 post infection) of the same compound?
Its activity at 0.1 µg/mL is 100%.

And the activity at 0.5 µg/mL (HIV-1(IIIB); 336 h, day 14 post infection)?
The activity at 0.5 µg/mL was 6.25%.

And the activity at 2.5 µg/mL (HIV-1(IIIB); 336 h, day 14 post infection)?
Its activity at 2.5 µg/mL is 0%.

What about the activity at 0.1 µg/mL (HIV-1(IIIB); 408 h, day 17 post infection) of the same compound?
The activity at 0.1 µg/mL was 100%.

And the activity at 0.5 µg/mL (HIV-1(IIIB); 408 h, day 17 post infection)?
The activity at 0.5 µg/mL was 25%.

What about the activity at 2.5 µg/mL (HIV-1(IIIB); 408 h, day 17 post infection) of the same compound?
Its activity at 2.5 µg/mL is 0%.

What about the activity at 0.1 µg/mL (HIV-1(IIIB); 504 h, day 21 post infection) of the same compound?
Its activity at 0.1 µg/mL is 100%.

And the activity at 0.5 µg/mL (HIV-1(IIIB); 504 h, day 21 post infection)?
The activity at 0.5 µg/mL was 75%.

And the activity at 2.5 µg/mL (HIV-1(IIIB); 504 h, day 21 post infection)?
Its activity at 2.5 µg/mL is 0%.

What about the activity at 0.1 µg/mL (HIV-1(IIIB); 600 h, day 25 post infection) of the same compound?
Its activity at 0.1 µg/mL is 100%.

What about the activity at 0.5 µg/mL (HIV-1(IIIB); 600 h, day 25 post infection) of the same compound?
Its activity at 0.5 µg/mL is 87.5%.

And the activity at 2.5 µg/mL (HIV-1(IIIB); 600 h, day 25 post infection)?
Its activity at 2.5 µg/mL is 0%.

What about the activity at 0.1 µg/mL (HIV-1(IIIB); 672 h, day 28 post infection) of the same compound?
Its activity at 0.1 µg/mL is 100%.

What about the activity at 0.5 µg/mL (HIV-1(IIIB); 672 h, day 28 post infection) of the same compound?
The activity at 0.5 µg/mL was 100%.

And the activity at 2.5 µg/mL (HIV-1(IIIB); 672 h, day 28 post infection)?
Its activity at 2.5 µg/mL is 0%.

And the activity at 0.1 µg/mL (HIV-1(IIIB); 768 h, day 32 post infection)?
The activity at 0.1 µg/mL was 100%.

What about the activity at 0.5 µg/mL (HIV-1(IIIB); 768 h, day 32 post infection) of the same compound?
Its activity at 0.5 µg/mL is 100%.

And the activity at 2.5 µg/mL (HIV-1(IIIB); 768 h, day 32 post infection)?
The activity at 2.5 µg/mL was 0%.

What about the activity at 0.1 µg/mL (HIV-1(IIIB); 840 h, day 35 post infection) of the same compound?
Its activity at 0.1 µg/mL is 100%.

What about the activity at 0.5 µg/mL (HIV-1(IIIB); 840 h, day 35 post infection) of the same compound?
The activity at 0.5 µg/mL was 100%.

What about the activity at 2.5 µg/mL (HIV-1(IIIB); 840 h, day 35 post infection) of the same compound?
Its activity at 2.5 µg/mL is 0%.

What about the activity at 0.1 µg/mL (HIV-1(IIIB); [4]) of the same compound?
The activity at 0.1 µg/mL was 100%.

And the activity at 0.5 µg/mL (HIV-1(IIIB); [4])?
Its activity at 0.5 µg/mL is 100%.

And the activity at 2.5 µg/mL (HIV-1(IIIB); [4])?
The activity at 2.5 µg/mL was 0%.

What about the activity at 0.1 µg/mL (HIV-1(IIIB); [5]) of the same compound?
The activity at 0.1 µg/mL was 100%.

What about the activity at 0.5 µg/mL (HIV-1(IIIB); [5]) of the same compound?
The activity at 0.5 µg/mL was 100%.

What about the activity at 2.5 µg/mL (HIV-1(IIIB); [5]) of the same compound?
The activity at 2.5 µg/mL was 0%.

What about the activity at 0.1 µg/mL (HIV-1(IIIB); [6]) of the same compound?
Its activity at 0.1 µg/mL is 100%.

And the activity at 0.5 µg/mL (HIV-1(IIIB); [6])?
The activity at 0.5 µg/mL was 100%.

What about the activity at 2.5 µg/mL (HIV-1(IIIB); [6]) of the same compound?
Its activity at 2.5 µg/mL is 0%.

What about the activity at 0.1 µg/mL (HIV-1(IIIB); [7]) of the same compound?
Its activity at 0.1 µg/mL is 100%.

And the activity at 0.5 µg/mL (HIV-1(IIIB); [7])?
Its activity at 0.5 µg/mL is 100%.

What about the activity at 2.5 µg/mL (HIV-1(IIIB); [7]) of the same compound?
Its activity at 2.5 µg/mL is 0%.

What about the activity at 0.1 µg/mL (HIV-1(IIIB); [8]) of the same compound?
Its activity at 0.1 µg/mL is 100%.

What about the activity at 0.5 µg/mL (HIV-1(IIIB); [8]) of the same compound?
The activity at 0.5 µg/mL was 100%.

What about the activity at 2.5 µg/mL (HIV-1(IIIB); [8]) of the same compound?
Its activity at 2.5 µg/mL is 0%.
